Measured values reported in publication PMC10882719 (Frontiers in Neuroscience, 2024).
Like-named read-outs stand apart in the source and are kept apart here.

Tests used:
Format in all cases: cell-based
168 GPCRs [1] = molecular target: T1, 168 GPCRs (Homo sapiens, UniProt P46091)
T1 construct: host or cells: PathHunter cell lines
T1 sequence (P46091 1-355): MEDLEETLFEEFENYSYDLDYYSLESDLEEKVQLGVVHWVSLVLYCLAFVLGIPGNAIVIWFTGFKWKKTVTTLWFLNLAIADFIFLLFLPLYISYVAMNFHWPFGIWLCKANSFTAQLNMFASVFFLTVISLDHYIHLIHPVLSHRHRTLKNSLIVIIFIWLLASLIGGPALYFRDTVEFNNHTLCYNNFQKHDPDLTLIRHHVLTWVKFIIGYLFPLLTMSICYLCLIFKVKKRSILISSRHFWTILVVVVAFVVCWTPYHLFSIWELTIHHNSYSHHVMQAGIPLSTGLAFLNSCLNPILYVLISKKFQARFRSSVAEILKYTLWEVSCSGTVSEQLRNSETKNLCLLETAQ
Method: (§1) Studies were performed at Eurofins DiscoverX Corporation (Fremont, CA) using the GPCRmax assay according to the manufacturer’s protocols. […] Activity greater than 30% typically indicates agonist activity and inhibition greater than 50% indicates antagonist activity. This assay uses enzyme fragment complementation with […] as the functional reporter. When a GPCR is activated, […] is recruited and the reporter is detectable. GPCRmax offers a high-throughput screen of 168 GPCRs for agonist or antagonist activity. Briefly, PathHunter cell lines were propagated, seeded into 384-well microplates and incubated at 37°C. […] Microplates were read following signal generation with a PerkinElmer Envision™ instrument for chemiluminescent signal detection. Compound activity was analyzed using CBIS data analysis suite (ChemInnovation, CA) to determine raw values (RLU). For agonist mode assay, percentage activity was calculated using the following formula: % Activity =100% × (mean RLU of test sample - mean RLU of vehicle control) / (mean MAX control ligand - mean RLU of vehicle control). For antagonist mode assay, percentage inhibition was calculated using the following formula: % Inhibition =100% × (1 - (mean RLU of test sample - mean RLU of vehicle control) / (mean RLU of EC80 control - mean RLU of vehicle control)).

168 GPCRs [2] = molecular target: T2, 168 GPCRs (Homo sapiens, UniProt P43115); conditions: PTGER3
T2 construct: host or cells: PathHunter cell lines
T2 sequence (P43115 1-390): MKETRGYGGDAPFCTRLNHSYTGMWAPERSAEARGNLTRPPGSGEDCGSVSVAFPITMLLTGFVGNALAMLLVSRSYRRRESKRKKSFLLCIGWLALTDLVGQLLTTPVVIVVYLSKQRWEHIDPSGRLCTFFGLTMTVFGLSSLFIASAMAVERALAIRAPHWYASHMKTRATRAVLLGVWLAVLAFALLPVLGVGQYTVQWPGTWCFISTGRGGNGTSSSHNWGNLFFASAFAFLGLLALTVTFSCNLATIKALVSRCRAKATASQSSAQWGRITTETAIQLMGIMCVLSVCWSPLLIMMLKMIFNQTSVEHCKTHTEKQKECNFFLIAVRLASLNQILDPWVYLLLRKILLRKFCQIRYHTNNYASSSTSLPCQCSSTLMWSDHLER
Method: as §1

168 GPCRs [3] = molecular target: T3, 168 GPCRs (Homo sapiens, UniProt P25106)
T3 construct: host or cells: PathHunter cell lines
T3 sequence (P25106 whole entry): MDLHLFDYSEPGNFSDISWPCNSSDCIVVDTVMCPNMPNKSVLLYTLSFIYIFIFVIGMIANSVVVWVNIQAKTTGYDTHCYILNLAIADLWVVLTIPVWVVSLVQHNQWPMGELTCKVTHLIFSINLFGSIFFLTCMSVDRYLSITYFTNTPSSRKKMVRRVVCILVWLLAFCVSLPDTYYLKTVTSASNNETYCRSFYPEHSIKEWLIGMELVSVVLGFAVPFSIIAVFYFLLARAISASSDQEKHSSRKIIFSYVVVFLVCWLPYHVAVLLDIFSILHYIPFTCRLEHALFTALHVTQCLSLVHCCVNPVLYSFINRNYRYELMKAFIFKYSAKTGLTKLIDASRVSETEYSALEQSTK
Method: as §1

168 GPCRs [4] = molecular target: T4, 168 GPCRs (Homo sapiens, UniProt P25025)
T4 construct: host or cells: PathHunter cell lines
T4 sequence (P25025 1-360): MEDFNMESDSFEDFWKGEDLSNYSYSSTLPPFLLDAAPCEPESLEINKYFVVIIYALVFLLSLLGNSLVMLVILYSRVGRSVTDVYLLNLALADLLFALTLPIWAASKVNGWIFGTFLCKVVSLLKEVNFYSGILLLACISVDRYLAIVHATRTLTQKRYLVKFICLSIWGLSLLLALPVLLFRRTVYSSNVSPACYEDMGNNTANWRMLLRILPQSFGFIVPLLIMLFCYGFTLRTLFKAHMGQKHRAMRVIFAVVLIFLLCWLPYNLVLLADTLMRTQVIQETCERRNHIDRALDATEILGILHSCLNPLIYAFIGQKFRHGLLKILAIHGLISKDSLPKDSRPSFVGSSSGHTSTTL
Method: as §1

168 GPCRs [5] = molecular target: T5, 168 GPCRs (Homo sapiens, UniProt P37288); conditions: AVPR1a
T5 construct: host or cells: PathHunter cell lines
T5 sequence (P37288 whole entry): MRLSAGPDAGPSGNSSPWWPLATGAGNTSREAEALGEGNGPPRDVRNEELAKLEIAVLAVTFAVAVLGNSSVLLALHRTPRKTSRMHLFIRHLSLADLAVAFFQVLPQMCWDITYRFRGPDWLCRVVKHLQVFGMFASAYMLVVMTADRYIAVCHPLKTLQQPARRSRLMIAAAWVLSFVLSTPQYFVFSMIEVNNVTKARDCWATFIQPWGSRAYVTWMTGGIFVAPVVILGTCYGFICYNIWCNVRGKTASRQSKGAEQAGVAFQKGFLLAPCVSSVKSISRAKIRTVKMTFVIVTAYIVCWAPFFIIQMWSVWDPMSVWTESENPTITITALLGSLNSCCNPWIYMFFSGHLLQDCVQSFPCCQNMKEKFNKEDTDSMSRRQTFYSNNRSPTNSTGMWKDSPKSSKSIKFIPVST
Method: as §1

168 GPCRs [6] = molecular target: T6, 168 GPCRs (Homo sapiens, UniProt P35414)
T6 construct: host or cells: PathHunter cell lines
T6 sequence (P35414 1-380): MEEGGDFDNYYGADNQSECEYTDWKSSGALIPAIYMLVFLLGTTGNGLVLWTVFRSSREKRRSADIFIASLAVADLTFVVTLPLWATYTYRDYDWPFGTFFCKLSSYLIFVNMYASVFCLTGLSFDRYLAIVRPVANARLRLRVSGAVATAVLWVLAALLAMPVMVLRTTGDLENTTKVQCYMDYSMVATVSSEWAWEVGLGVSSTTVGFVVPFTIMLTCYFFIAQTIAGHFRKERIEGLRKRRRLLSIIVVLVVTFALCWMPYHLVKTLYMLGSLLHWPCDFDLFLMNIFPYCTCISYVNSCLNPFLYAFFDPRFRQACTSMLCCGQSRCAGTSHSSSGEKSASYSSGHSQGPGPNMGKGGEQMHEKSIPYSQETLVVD
Method: as §1

CNC(C)Cc1ccc2c(c1)OCO2 (stereo not drawn) [MDMA, 3,4-Methylenedioxy methamphetamine, reference compound]
% Agonist Activity (168 GPCRs [1]; GPR1, 1 uM): 0.7% | % Antagonist Activity (168 GPCRs [1]; GPR1, 1 uM): 7.6% | % Agonist Activity (168 GPCRs [1]; GPR1, 10 uM): 0.2% | % Antagonist Activity (168 GPCRs [1]; GPR1, 10 uM): 11.9% | % Agonist Activity (168 GPCRs [2]; Conc 1 uM): 3.5% | % Antagonist Activity (168 GPCRs [2]; Conc 1 uM): 5.2% | % Agonist Activity (168 GPCRs [2]; Conc 10 uM): 3.6% | % Antagonist Activity (168 GPCRs [2]; Conc 10 uM): 4.2% | % Agonist Activity (168 GPCRs [3]; CXCR7, 1 uM): -1.3% | % Antagonist Activity (168 GPCRs [3]; CXCR7, 1 uM): 5.3% | % Agonist Activity (168 GPCRs [3]; CXCR7, 10 uM): 0.5% | % Antagonist Activity (168 GPCRs [3]; CXCR7, 10 uM): 8% | % Agonist Activity (168 GPCRs [4]; CXCR2, 1 uM): -0.9% | % Antagonist Activity (168 GPCRs [4]; CXCR2, 1 uM): 12.8% | % Agonist Activity (168 GPCRs [4]; CXCR2, 10 uM): 2.2% | % Antagonist Activity (168 GPCRs [4]; CXCR2, 10 uM): 14.6% | % Agonist Activity (168 GPCRs [5]; 1 uM): -0.2% | % Antagonist Activity (168 GPCRs [5]; 1 uM): -3.6% | % Agonist Activity (168 GPCRs [5]; 10 uM): -0.4% | % Antagonist Activity (168 GPCRs [5]; 10 uM): 4.5% | % Agonist Activity (168 GPCRs [6]; AGTRL1, 1 uM): -0.8% | % Antagonist Activity (168 GPCRs [6]; AGTRL1, 1 uM): -13.4% | % Agonist Activity (168 GPCRs [6]; AGTRL1, 10 uM): -0.2% | % Antagonist Activity (168 GPCRs [6]; AGTRL1, 10 uM): -8.4%

CNC(C)C(=O)c1ccc2c(c1)OCO2 (stereo not drawn) [methylone]
% Agonist Activity (168 GPCRs [1]; GPR1, 1 uM): -0.5% | % Antagonist Activity (168 GPCRs [1]; GPR1, 1 uM): 4.4% | % Agonist Activity (168 GPCRs [1]; GPR1, 10 uM): -0.7% | % Antagonist Activity (168 GPCRs [1]; GPR1, 10 uM): 7.4% | % Agonist Activity (168 GPCRs [2]; Conc 1 uM): 4.5% | % Antagonist Activity (168 GPCRs [2]; Conc 1 uM): -6.2% | % Agonist Activity (168 GPCRs [2]; Conc 10 uM): 1.9% | % Antagonist Activity (168 GPCRs [2]; Conc 10 uM): -5.7% | % Agonist Activity (168 GPCRs [3]; CXCR7, 1 uM): -1.3% | % Antagonist Activity (168 GPCRs [3]; CXCR7, 1 uM): 14.1% | % Agonist Activity (168 GPCRs [3]; CXCR7, 10 uM): -0.8% | % Antagonist Activity (168 GPCRs [3]; CXCR7, 10 uM): 7.3% | % Agonist Activity (168 GPCRs [4]; CXCR2, 1 uM): -0.2% | % Antagonist Activity (168 GPCRs [4]; CXCR2, 1 uM): -7.6% | % Agonist Activity (168 GPCRs [4]; CXCR2, 10 uM): -2.6% | % Antagonist Activity (168 GPCRs [4]; CXCR2, 10 uM): -1% | % Agonist Activity (168 GPCRs [5]; 1 uM): -0.6% | % Antagonist Activity (168 GPCRs [5]; 1 uM): -3% | % Agonist Activity (168 GPCRs [5]; 10 uM): -0.5% | % Antagonist Activity (168 GPCRs [5]; 10 uM): 2.8% | % Agonist Activity (168 GPCRs [6]; AGTRL1, 1 uM): -0.9% | % Antagonist Activity (168 GPCRs [6]; AGTRL1, 1 uM): -3.3% | % Agonist Activity (168 GPCRs [6]; AGTRL1, 10 uM): -1.5% | % Antagonist Activity (168 GPCRs [6]; AGTRL1, 10 uM): -4.1%
